Results on 15 compounds are retold here after US8846949B2, “Pyrrolopyrazoles as N-type calcium channel blockers” (Janssen Pharmaceutica NV, priority 2012, dated 2014).

For one assay, the target named is T1, N-type calcium channel (Homo sapiens, UniProt Q00975).
T1 construct: expressed in transfected cells
The assay can be described thus: Automated electrophysiology assay (QPatch-HT whole-cell patch clamp). The class given is cell-based. The method, then:
Cells were grown in T175 flasks to 50%-90% confluence. At the time of use, cells were enzymatically treated with Detachin (Genlantis, San Diego, Calif. USA), centrifuged, rinsed, and resuspended in 293 SFM II media (Life Technologies, Grand Island, N.Y. U.S.A.) supplemented with 25 mM HEPES (Sigma-Aldrich, St. Louis, Mo. U.S.A.) to a concentration of 2-3×10^6 cells/mL. Cells were added to the automated cell preparation station on the QPatch-HT (Sophion Biosciences, North Brunswick, N.J. U.S.A.), and following a 10- to 30-min recovery period with gentle stirring, the assay protocol was initiated. During the automated cell preparation, cells were collected, centrifuged and resuspended in an extracellular (EC) solution containing 132 mM NaCl, 1.8 mM CaCl2, 5.4 mM KCl, 0.8 mM MgCl2, 10 mM glucose, and 10 mM HEPES (pH=7.4), adjusted with sucrose to approximately 315 m0sm. The QPlate was primed with an intracellular solution containing 135 mM CsCl, 10 mM EGTA, 4 MgATP, 0.3 NaGTP, and 20 mM HEPES (pH=7.2), adjusted to approximately 290 m0sm with deionized water and the EC solution. Cells were added to the prepared QPlate wells by robotic pipettes of the QPatch-HT.
For cells determined to be in stable whole-cell patch clamp, the EC solution was replaced with a barium (Ba)/triethylammonium (TEA) solution containing 140 mM TEA-Cl, 10 mM BaCl2, 0.8 mM MgCl2, 10 mM glucose and 10 mM HEPES (pH=7.4). High (40 mM) BaCl2 concentrations were made with adjustments to TEA-C1 (90 mM) to maintain the osmolarity. From a resting potential of −80 mV, a train of depolarizing pulses (15 pulses at 5 Hz, +20 mV) was delivered to the cell once every 30 sec for eight trains (4 min total), and the resulting currents were measured during a control period (no compound). This protocol was repeated for each subsequent addition of control buffer with or without compound (three periods total, each with four trains). The current generated in the 1st and 15th pulses of the last train of each period in the presence of each drug concentration was normalized to the current generated during the control period at the respective pulses (representing low- and high-frequency stimulation, respectively). Data from both the second and third drug application periods were analyzed for each cell. A final addition of Ba/TEA solution containing 60-100 μM CdCl2 was made to block all N-type current and to “zero” the currents for each cell. All buffer/compound additions were made using a “spitting” feature of the QPatch-HT, which added three repetitions of 5 μL solution at the beginning of each recording period.
To examine closed-state inactivation, cells were subjected to a channel-activating 50-msec depolarizing step pulse from −80 to +10 mV, followed by a 5-sec nonactivating step to voltages ranging from −130 to −60 mV in 10 mV increments and then a 50-ms step from −80 to +10 mV to assess the remaining current. Currents from the activating voltage pulse were normalized to the peak value of the test pulse following the −130 mV step and fit to a Boltzman equation to obtain the V1/2. Roscovitine (Sigma-Aldrich) was prepared as a 100 mM stock in dimethyl sulfoxide and diluted to the indicated working concentrations. […]. Compounds of Formula (I) were diluted first into dimethyl sulfoxide and then into 10% pluronic F-127 in water (Life Technologies), sonicated for 1 min and diluted into EC buffer. Vehicle controls were run in parallel in all experiments.
Unless otherwise indicated, statistics for comparing among electrophysiological results utilized a one-way analysis of variance with Fisher's least squares determination test for pair-wise comparison.

The target in assay [1] is T2, N-type calcium channel α1B (Cav2.2), β3 and α2δ subunits (Homo sapiens, UniProt Q00975).
T2 construct: expressed in transfected cells
T2 sequence (Q00975 whole entry): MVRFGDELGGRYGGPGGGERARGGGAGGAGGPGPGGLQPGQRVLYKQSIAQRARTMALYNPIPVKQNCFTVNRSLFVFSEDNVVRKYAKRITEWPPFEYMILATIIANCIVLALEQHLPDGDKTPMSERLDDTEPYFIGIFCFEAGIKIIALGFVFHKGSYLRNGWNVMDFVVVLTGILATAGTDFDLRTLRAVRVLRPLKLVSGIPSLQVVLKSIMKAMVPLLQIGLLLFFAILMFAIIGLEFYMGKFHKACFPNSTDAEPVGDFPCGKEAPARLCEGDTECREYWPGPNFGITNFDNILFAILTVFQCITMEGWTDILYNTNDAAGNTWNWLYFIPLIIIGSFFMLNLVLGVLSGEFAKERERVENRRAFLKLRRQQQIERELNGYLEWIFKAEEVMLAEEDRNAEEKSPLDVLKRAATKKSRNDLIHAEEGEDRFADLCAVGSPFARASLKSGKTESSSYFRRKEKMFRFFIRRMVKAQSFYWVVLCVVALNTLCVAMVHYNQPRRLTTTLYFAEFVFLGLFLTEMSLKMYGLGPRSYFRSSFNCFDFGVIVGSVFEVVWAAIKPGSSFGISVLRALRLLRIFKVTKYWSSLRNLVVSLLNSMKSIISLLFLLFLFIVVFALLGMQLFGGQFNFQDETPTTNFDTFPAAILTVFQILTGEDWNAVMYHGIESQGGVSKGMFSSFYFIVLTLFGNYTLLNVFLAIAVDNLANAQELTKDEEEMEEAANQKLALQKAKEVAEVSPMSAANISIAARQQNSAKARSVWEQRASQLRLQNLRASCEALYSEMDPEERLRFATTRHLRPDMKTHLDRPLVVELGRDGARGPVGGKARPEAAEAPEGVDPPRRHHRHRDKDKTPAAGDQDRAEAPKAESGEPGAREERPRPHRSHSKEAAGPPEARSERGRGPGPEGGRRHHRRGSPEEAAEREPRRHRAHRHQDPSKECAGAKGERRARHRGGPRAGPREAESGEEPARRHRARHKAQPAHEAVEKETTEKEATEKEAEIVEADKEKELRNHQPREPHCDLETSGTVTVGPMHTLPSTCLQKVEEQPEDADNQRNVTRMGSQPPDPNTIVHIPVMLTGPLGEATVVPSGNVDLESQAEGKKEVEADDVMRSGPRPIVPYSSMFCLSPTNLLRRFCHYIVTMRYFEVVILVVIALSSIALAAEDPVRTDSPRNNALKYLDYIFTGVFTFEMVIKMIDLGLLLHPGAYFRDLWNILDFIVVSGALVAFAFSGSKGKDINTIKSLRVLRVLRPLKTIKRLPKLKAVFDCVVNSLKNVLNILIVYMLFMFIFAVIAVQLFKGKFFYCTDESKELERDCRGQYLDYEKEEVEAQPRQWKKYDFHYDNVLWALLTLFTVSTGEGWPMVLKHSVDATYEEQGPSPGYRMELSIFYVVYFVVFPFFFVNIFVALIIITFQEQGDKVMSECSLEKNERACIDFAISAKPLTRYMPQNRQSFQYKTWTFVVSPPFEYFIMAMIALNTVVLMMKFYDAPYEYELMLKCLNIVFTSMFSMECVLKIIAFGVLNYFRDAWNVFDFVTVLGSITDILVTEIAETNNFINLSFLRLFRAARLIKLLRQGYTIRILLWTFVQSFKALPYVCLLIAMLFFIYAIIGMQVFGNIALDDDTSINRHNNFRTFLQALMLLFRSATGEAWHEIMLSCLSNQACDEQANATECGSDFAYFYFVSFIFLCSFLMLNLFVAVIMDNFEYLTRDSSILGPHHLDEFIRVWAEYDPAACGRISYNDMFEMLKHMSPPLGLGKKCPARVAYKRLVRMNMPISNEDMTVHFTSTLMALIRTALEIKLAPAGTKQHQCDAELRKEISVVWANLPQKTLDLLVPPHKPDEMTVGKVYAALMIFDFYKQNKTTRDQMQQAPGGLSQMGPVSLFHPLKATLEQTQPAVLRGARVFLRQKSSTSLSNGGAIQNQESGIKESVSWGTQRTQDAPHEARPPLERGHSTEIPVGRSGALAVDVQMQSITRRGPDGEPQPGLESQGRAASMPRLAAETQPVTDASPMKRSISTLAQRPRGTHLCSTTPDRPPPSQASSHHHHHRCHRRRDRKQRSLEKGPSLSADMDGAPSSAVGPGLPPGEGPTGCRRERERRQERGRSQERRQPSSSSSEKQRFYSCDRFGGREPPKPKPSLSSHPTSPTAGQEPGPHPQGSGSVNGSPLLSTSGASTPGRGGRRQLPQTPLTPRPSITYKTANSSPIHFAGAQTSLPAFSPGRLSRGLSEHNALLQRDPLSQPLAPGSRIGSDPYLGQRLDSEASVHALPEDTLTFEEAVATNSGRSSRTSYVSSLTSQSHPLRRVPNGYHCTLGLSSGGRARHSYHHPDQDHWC
T2 sequence (P54284 whole entry partner): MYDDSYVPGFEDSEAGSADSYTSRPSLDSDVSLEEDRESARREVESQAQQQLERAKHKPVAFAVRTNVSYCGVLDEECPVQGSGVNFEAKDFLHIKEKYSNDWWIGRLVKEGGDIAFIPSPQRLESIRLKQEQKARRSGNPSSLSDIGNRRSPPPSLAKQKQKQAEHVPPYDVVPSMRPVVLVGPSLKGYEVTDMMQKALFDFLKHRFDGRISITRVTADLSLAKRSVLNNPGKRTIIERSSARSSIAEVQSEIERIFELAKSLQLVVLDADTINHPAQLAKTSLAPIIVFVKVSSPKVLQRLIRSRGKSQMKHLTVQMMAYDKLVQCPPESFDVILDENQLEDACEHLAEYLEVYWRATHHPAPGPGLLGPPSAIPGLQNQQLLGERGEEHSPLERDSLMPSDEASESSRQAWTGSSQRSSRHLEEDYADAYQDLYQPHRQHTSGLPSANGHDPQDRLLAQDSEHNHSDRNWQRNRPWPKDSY
T2 sequence (P54289 25-956 partner limits assumed): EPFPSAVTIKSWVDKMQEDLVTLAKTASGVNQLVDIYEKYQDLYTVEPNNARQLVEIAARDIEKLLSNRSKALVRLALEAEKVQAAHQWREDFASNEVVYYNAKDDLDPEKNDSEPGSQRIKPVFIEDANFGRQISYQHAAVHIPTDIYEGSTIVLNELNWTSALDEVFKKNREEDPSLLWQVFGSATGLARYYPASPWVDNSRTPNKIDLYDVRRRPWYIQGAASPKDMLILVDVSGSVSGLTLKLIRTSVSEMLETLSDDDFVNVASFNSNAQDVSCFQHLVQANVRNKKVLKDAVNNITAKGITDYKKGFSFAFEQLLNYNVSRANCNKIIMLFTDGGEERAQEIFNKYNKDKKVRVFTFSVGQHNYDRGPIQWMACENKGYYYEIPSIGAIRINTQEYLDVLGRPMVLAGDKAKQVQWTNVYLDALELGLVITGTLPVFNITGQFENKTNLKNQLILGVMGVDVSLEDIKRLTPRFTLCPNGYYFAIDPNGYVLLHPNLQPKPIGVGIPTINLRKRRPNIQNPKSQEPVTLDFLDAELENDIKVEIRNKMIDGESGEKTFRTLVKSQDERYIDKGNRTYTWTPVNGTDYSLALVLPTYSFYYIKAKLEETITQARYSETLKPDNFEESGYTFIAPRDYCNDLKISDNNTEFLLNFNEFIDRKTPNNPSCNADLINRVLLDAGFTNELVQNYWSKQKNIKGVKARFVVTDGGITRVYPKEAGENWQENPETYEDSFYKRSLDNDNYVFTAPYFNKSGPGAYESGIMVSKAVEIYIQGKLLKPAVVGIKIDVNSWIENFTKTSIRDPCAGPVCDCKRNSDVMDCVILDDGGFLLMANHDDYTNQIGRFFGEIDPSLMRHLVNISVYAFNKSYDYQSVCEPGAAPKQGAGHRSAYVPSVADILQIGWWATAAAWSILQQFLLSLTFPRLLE
T2 sequence (P54289 957-1103 partner limits assumed): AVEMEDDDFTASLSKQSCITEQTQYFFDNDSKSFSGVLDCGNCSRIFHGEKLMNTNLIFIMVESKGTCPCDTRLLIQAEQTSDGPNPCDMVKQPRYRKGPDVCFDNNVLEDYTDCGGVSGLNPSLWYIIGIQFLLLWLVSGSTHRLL
The assay is described as follows: Functional assay, antagonism of N-type calcium channel (FDSS calcium mobilization response to KCl depolarization). The class given is cell-based. Particulars: for IC50: HEK stable cell line, 50 mM KCl depolarization, six-point concentration-response; for inhibition at 0.33 µM: 0.33 μM compound, FDSS, 50 mM KCl. The method in brief:
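HEK cells stably co-expressing α1B (Cav2.2), β3 and α2δ subunits were loaded with calcium dye, preincubated with compound for 5 min, then depolarized with 50 mM KCl and read for 3 min by FDSS fluorescence. IC50 from six-point curves, normalized to KCl maximum and buffer minimum.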

[2] abbreviates: high frequency (15th pulse of train, 5 Hz), read-out: QPatch at High Frequency % Inhibition.
[3] abbreviates: low frequency (1st pulse of train), read-out: QPatch at Low Frequency % Inhibition.

The structures appear in SMILES notation. Like-named read-outs stand apart in the source and are kept apart here.

T1 sequence (Q00975 whole entry): as the sequence (Q00975 whole entry) above
T1 sequence (P54284 whole entry partner): as the sequence (P54284 whole entry partner) above
T1 sequence (P54289 25-956 partner limits assumed): as the sequence (P54289 25-956 partner limits assumed) above
T1 sequence (P54289 957-1103 partner limits assumed): as the sequence (P54289 957-1103 partner limits assumed) above

As for `COc1ccccc1-n1nc2c(c1-c1ccc(Cl)cc1)CN(S(=O)(=O)C1CC1)C2` [Cpd 32, 3-(4-Chlorophenyl)-5-(cyclopropylsulfonyl)-2-(2-methoxyphenyl)-2,4,5,6-tetrahydropyrrolo[3,4-c]pyrazole], at N-type calcium channel (setting [2]), the inhibition (as a rule, the relative decrease from the control value, in per cent) at 0.03 µM was -5%; the inhibition at 0.05 µM stood at 23%; the inhibition at 0.25 µM was 64%; the inhibition at 1 µM is 83%. Besides, on N-type calcium channel (setting [3]), the inhibition at 0.03 µM was -6%, the inhibition at 0.05 µM worked out at 10%, the inhibition at 0.25 µM turned out to be 57% and the inhibition at 1 µM amounted to 74%. In addition, the IC50 (commonly the concentration that inhibits the measured activity by half) in assay [1] stood at 21 nM.

In the case of `CCOc1ccccc1-n1nc2c(c1-c1ccc(Cl)cc1)CN(S(=O)(=O)C(C)C)C2` [Cpd 50, 3-(4-Chlorophenyl)-2-(2-ethoxyphenyl)-5-[(1-methylethyl)sulfonyl]-2,4,5,6-tetrahydropyrrolo[3,4-c]pyrazole], the results for the inhibition at 0.1 µM at N-type calcium channel (setting [2]) and at N-type calcium channel (setting [3]) were 50% and 42%, respectively. Besides, in assay [1], the IC50 came to 3 nM.

With `CCOc1ccccc1-n1nc2c(c1-c1ccc(Cl)cc1)CN(S(=O)(=O)N(C)C)C2` [Cpd 54, 3-(4-Chlorophenyl)-2-(2-ethoxyphenyl)-N,N-dimethyl-2,6-dihydropyrrolo[3,4-c]pyrazole-5(4H)-sulfonamide], the inhibition at 0.1 µM on N-type calcium channel (setting [2]) stood at 46%; at N-type calcium channel (setting [3]) it was 36%. Further, in assay [1], the concentration for half-maximal inhibition (IC50) was 2 nM.

Take `CCS(=O)(=O)N1Cc2nn(-c3ccccc3N(C)C)c(-c3ccc(Cl)cc3)c2C1` [Cpd 89, 2-[3-(4-Chlorophenyl)-5-(ethylsulfonyl)-5,6-dihydropyrrolo[3,4-c]pyrazol-2(4H)-yl]-N,N-dimethylaniline]: the inhibition at 0.1 µM on N-type calcium channel (setting [2]) came to 34%. Besides, the inhibition at 0.1 µM on N-type calcium channel (setting [3]) turned out to be 10%. Further, in assay [1], the inhibition at 0.33 µM was 90% and the concentration for half-maximal inhibition (IC50) was determined as 28 nM.

As to `CC(C)S(=O)(=O)N1Cc2nn(-c3ccccc3N(C)C)c(-c3ccc(Cl)cc3)c2C1` [Cpd 88, 2-[3-(4-Chlorophenyl)-5-[(1-methylethyl)sulfonyl]-5,6-dihydropyrrolo[3,4-c]pyrazol-2(4H)-yl]-N,N-dimethylaniline], the inhibition at 0.1 µM on N-type calcium channel (setting [2]) amounted to 47%. Besides, the inhibition at 0.1 µM on N-type calcium channel (setting [3]) is 26%. In assay [1], the inhibition at 0.33 µM is 96% and the IC50 is 5 nM.

Consider `COc1ccccc1-n1nc2c(c1-c1ccc(Cl)cc1)CN(S(=O)(=O)C(C)C)C2` [Cpd 31, 3-(4-Chlorophenyl)-2-(2-methoxyphenyl)-5-[(1-methylethyl)sulfonyl]-2,4,5,6-tetrahydropyrrolo[3,4-c]pyrazole], for which, at N-type calcium channel (setting [2]), the inhibition at 0.1 µM is 47%. The inhibition at 0.1 µM on N-type calcium channel (setting [3]) turned out to be 11%. Also, in assay [1], the inhibition at 0.33 µM was determined as 94% and the IC50 came to 10 nM.

In the case of `CS(=O)(=O)N1Cc2nn(-c3ccccc3OC(F)(F)F)c(-c3ccc(Cl)cc3)c2C1` [Cpd 20, 3-(4-Chlorophenyl)-5-(methylsulfonyl)-2-[2-(trifluoromethoxy)phenyl]-2,4,5,6-tetrahydropyrrolo[3,4-c]pyrazole], the inhibition at 1 µM at N-type calcium channel (setting [2]) was determined as 30%; at N-type calcium channel (setting [3]) it was 5%. Also, the IC50 in assay [1] came out at 40 nM.

For the compound `CCc1ccccc1-n1nc2c(c1-c1ccc(Cl)cc1)CN(S(C)(=O)=O)C2` [Cpd 2, 3-(4-Chlorophenyl)-2-(2-ethylphenyl)-5-(methylsulfonyl)-2,4,5,6-tetrahydropyrrolo[3,4-c]pyrazole], the inhibition at 1 µM was 22% on N-type calcium channel (setting [2]) and -9% on N-type calcium channel (setting [3]). The IC50 in assay [1] was 85 nM.

Turning to `CC(C)S(=O)(=O)N1Cc2nn(-c3cccc4c3OCO4)c(-c3ccc(Cl)cc3)c2C1` [Cpd 81, 2-(1,3-Benzodioxol-4-yl)-3-(4-chlorophenyl)-5-[(1-methylethyl)sulfonyl]-2,4,5,6-tetrahydropyrrolo[3,4-c]pyrazole], the inhibition at 0.1 µM at N-type calcium channel (setting [3]) is -19%. In assay [1], the inhibition at 0.33 µM was 89% and the IC50 was found to be 20 nM.

Turning to `COc1ccccc1-n1nc2c(c1-c1ccc(Cl)cc1)CN(S(C)(=O)=O)C2` [Cpd 30, 3-(4-Chlorophenyl)-2-(2-methoxyphenyl)-5-(methylsulfonyl)-2,4,5,6-tetrahydropyrrolo[3,4-c]pyrazole], the inhibition at 1 µM on N-type calcium channel (setting [2]) turned out to be 49%; on N-type calcium channel (setting [3]), 28%. For the same compound, the IC50 in assay [1] amounted to 21 nM.

As for `COc1ccc(-c2c3c(nn2-c2ccccc2OC)CN(S(=O)(=O)C(C)C)C3)cn1` [Cpd 97, 2-(2-Methoxyphenyl)-3-(6-methoxypyridin-3-yl)-5-[(1-methylethyl)sulfonyl]-2,4,5,6-tetrahydropyrrolo[3,4-c]pyrazole], the inhibition at 1 µM at N-type calcium channel (setting [2]) was 60%. Besides, on N-type calcium channel (setting [3]), the inhibition at 1 µM worked out at 40%. Besides, in assay [1], the inhibition at 0.33 µM amounted to 67% and the 50% inhibitory concentration (IC50) is 43 nM.

Consider `COc1ccccc1-n1nc2c(c1-c1ccc(Cl)cc1)CN(S(=O)(=O)CCNS(=O)(=O)C(C)C)C2` [Cpd 45, N-(2-{[3-(4-Chlorophenyl)-2-(2-methoxyphenyl)-2,6-dihydropyrrolo[3,4-c]pyrazol-5(4H)-yl]sulfonyl}ethyl)propane-2-sulfonamide], for which the inhibition at 0.1 µM at N-type calcium channel (setting [2]) and on N-type calcium channel (setting [3]) was 26% in each case. The concentration for half-maximal inhibition (IC50) in assay [1] is 13 nM.

In the case of `COc1ccccc1-n1nc2c(c1-c1ccc(Cl)cc1)CN(S(=O)(=O)CCNS(C)(=O)=O)C2` [Cpd 44, N-(2-{[3-(4-Chlorophenyl)-2-(2-methoxyphenyl)-2,6-dihydropyrrolo[3,4-c]pyrazol-5(4H)-yl]sulfonyl}ethyl)methanesulfonamide], the inhibition at 0.1 µM at N-type calcium channel (setting [2]) was -5%; at N-type calcium channel (setting [3]), -2%. Further, the IC50 in assay [1] was 9 nM.

In the case of `CC(C)CS(=O)(=O)N1Cc2nn(-c3cccc4c3OCC4)c(-c3ccc(Cl)cc3)c2C1` [Cpd 85, 3-(4-Chlorophenyl)-2-(2,3-dihydro-1-benzofuran-7-yl)-5-[(2-methylpropyl)sulfonyl]-2,4,5,6-tetrahydropyrrolo[3,4-c]pyrazole], the inhibition at 0.1 µM turned out to be 37% at N-type calcium channel (setting [2]) and 13% at N-type calcium channel (setting [3]). Moreover, the inhibition at 0.33 µM in assay [1] was 94%. The IC50 in assay [1] was 14 nM.

For `CCN(CC)S(=O)(=O)N1Cc2nn(-c3ccccc3OC)c(-c3ccc(Cl)cc3)c2C1` [Cpd 56, 3-(4-Chlorophenyl)-N,N-diethyl-2-(2-methoxyphenyl)-2,6-dihydropyrrolo[3,4-c]pyrazole-5(4H)-sulfonamide], the inhibition at 0.1 µM at N-type calcium channel (setting [2]) worked out at 36%; on N-type calcium channel (setting [3]), 28%. Besides, the half-inhibitory concentration (IC50) in assay [1] stood at 3 nM.
